The source of these data is publication PMC9068901, “Novel Inhibitors and Activity-Based Probes Targeting Trypsin-Like Serine Proteases” (Frontiers in Chemistry, 2022).

Read-outs that look alike come from different tables or passages of the source. *1 amine or outer side, *2 acyl side, *3 side chain or, on linkers, in order; H or OH if unused. Where a SMILES comes first, the peptide text is derived from it. Side-chain parts run from the residue outwards. [ ]: non-standard residue; d: D form. The star is where a group is joined. Biotin = O=C1N[C@H]2[C@H](CS[C@H]2CCCCC(=O)*)N1; Gly(N-(CH2)3-guanidino) = N=C(N)NCCCNCC(=O)O; Glutaryl = O=C(CCCC(=O)[*:2])[*:1]; X4 = O=C(Oc1c(F)c(F)c(F)c(F)c1F)*; X2 = O=C1CCC(=O)N1OC(=O)*; X3 = C#Cc1cccc(N*)c1; Ahx = NCCCCCC(=O)O; X1 = O=C(n1cncn1)* Bounds are passed on as bounds.

Experiment [1] deals with T1, human trypsin (Homo sapiens, UniProt P07477). Briefly: Determination of inhibitor constants against trypsin (progress curves, Cbz-Gly-Gly-Arg-AMC). In kind it is biochemical. The note with it: for k3: first-order rate constant; for k3/Ki: second-order rate constant. As to the method: (§1) Recombinant protease activities were assessed using the cognate fluorogenic substrates (final concentration 50 μM) as follows: trypsin (Cbz-Gly-Gly-Arg-AMC), neutrophil elastase (MeO-Suc-Ala-Ala-Pro-Val-AMC) and chymotrypsin (Suc-Ala-Ala-Pro-Phe-AMC). The assay in the presence or absence of protease inhibitors at a range of final concentrations was performed using a standard microtitre plate format. Substrate hydrolysis, at 37°C, was monitored over a 60 min period by measuring the rate of increase in fluorescence (at λex 360 nm, λem 480 nm) using a FLUOstar Optima microplate reader (BMG Labtech).
A broad range of inhibitor concentrations were prepared from a 10 mM stock solution of the five test compounds (NAP851, NAP966, NAP987, NAP884 and NAP858) in N,N-dimethyformamide (DMF). The fluorogenic substrate, Cbz-Gly-Gly-Arg-AMC, was diluted in assay buffer (PBS, pH 7.4) and used at a fixed concentration of 50 μM. All inhibition assays were performed in microtitre plates maintained at 37°C in a final volume of 100 μL. The reaction was initiated by the addition of human trypsin (0.01 μg/well) and the rate of substrate hydrolysis continuously recorded at λex 360 nm, λem 480 nm using a FLUOstar Optima microplate reader (BMG Labtech). The resultant inhibition progress curve for the putative protease inhibitors were analysed according to the kinetic models developed by Tian and Tsou ([Tian and Tsou, 1982]) and Walker and Elmore ([Walker and Elmore, 1984]), for irreversible inhibitors, using GRAFIT (Erithacus Software) as described previously ([Ferguson et al., 2016]).

Another experiment relates to chymotrypsin. Briefly: Off-target fluorogenic substrate assay, chymotrypsin. In kind it is biochemical. As to the method:
as §1

The target in experiment [2] is T2, neutrophil elastase (Homo sapiens, UniProt P08246).
T2 construct: purchased Calbiochem
T2 sequence (P08246 30-267): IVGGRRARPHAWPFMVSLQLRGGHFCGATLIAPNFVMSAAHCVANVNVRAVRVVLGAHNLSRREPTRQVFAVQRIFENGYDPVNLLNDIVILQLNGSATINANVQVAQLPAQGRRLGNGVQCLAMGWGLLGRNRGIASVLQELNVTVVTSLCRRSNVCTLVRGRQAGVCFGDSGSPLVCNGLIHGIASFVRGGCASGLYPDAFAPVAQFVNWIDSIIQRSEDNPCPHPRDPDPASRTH
As to the kind of experiment: Off-target fluorogenic substrate assay, neutrophil elastase. It counts as biochemical. The conditions noted are these: 50 μM (highest concentration tested); read-out: inhibition of NE (decrease in activity) relative to controls. As to the method: as §1

Experiment [3] has as its system trypsin. Briefly: Off-target fluorogenic substrate assay, trypsin. It counts as biochemical. The note with it: across the range of concentrations studied, vs chymotrypsin and NE. The protocol: as §1
For experiment [4], the system named is trypsin. As to the kind of experiment: Click chemistry labelling of trypsin with rhodamine-azide. In kind it is binding. The note with it: trypsin 1 μg. The protocol:
(§2) Samples pre-treated with competitive inhibitor (Cbz-Arg^P(OPh)2 for trypsin and Cbz-Val^P(OPh)2 for neutrophil elastase) for 30 min prior to addition of NAP884, were included for comparison. Following treatment with NAP884, DMSO (25% v/v final concentration), rhodamine-X azide (60 µM final concentration), copper (II)-TBTA complex (1 mM final concentration) and freshly prepared sodium ascorbate (1 mM final concentration) were added. The samples were mixed and incubated at room temperature in the dark for 1 h with gentle agitation. Samples were then denatured with SDS-containing reducing treatment buffer (10 min at 95°C), followed by resolution by SDS-PAGE and visualisation under UV light.

For experiment [5], the target named is T2, neutrophil elastase. Briefly: Click chemistry labelling of neutrophil elastase with rhodamine-azide. The note with it: NE 1 μg, 30 min, 37°C. In kind it is binding. As to the method:
as §2, with “Samples of recombinant protease (trypsin and neutrophil elastase) were treated with alkyne-containing probe NAP884 at a concentration of 50 μM, for 30 min at 37°C. Samples pre-treated” for “Samples pre-treated”

For experiment [6], the system named is trypsin. As to the kind of experiment: Activity-based probe labelling of trypsin (SDS-PAGE, Western blot, streptavidin-HRP). In kind it is binding. The conditions noted are these: probe 50 μM, 30 min, 37°C. As to the method:
Samples of recombinant protease (trypsin, human airway trypsin-like protease (HAT), matriptase, thrombin or neutrophil elastase, as indicated in the relevant figure legends) were treated with putative ABPs at a concentration of 50 μM, for 30 min, at 37°C. A control sample was prepared by treating recombinant protease with solvent control only. A further sample was prepared where Cbz-Arg^P(OPh)2 was added 30 min prior to the addition of the ABP under examination. […] All treated samples were then denatured with SDS-containing reducing treatment buffer (10 min at 95°C), followed by resolution by SDS-PAGE and subjected to Western blotting. Note, only stable covalent bonds between the ABP and protease active site would survive the harsh denaturing conditions involved in the resolution process. Resolved proteins were then transferred on to nitrocellulose membrane and labelled with streptavidin-HRP. The ABP-protease complex was then visualised following treatment with Luminata Forte HRP substrate.
A general note: A western blot detects proteins with antibodies after separation by electrophoresis.

Experiment [7] has as its target T1, human trypsin. On the set-up: method as in PMID 10611275. The conditions noted are these: ref [30]; cited from earlier work.
The target in another experiment is T3, matriptase (Homo sapiens, UniProt Q9Y5Y6).
T3 construct: purchased R and D Systems
T3 sequence (Q9Y5Y6 615-855 limits assumed): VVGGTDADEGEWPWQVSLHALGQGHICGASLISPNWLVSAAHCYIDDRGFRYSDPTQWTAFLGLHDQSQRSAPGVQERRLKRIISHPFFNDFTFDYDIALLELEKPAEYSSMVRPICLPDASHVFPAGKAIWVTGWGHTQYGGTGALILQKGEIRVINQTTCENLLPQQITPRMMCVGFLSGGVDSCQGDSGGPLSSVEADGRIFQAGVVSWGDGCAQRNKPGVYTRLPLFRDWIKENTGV
On the set-up: method as in Reihill et al., 2016. The conditions noted are these: in words; ref Reihill et al., 2016; cited from earlier work.

The next experiment relates to HAT. Details: method as in Reihill et al., 2016. The note with it: in words; ref Reihill et al., 2016; cited from earlier work.
[8] abbreviates: PBS pH 7.4, 37°C, 50 μM Cbz-Gly-Gly-Arg-AMC, ±S.E.M., three determinations, read-out: Ki.
[9] abbreviates: PBS pH 7.4, 37°C, ±S.E.M., three determinations.

In general, Ki refers to a dissociation constant, usually derived from enzyme kinetics or from competition with a known ligand. Take `N=C(N)NCCCN(CC(=O)NCC(=O)NCC(=O)NCCCCCC(=O)N[C@@H](CCCCNC(=O)CCCC[C@@H]1SC[C@@H]2NC(=O)N[C@@H]21)C(=O)O)C(=O)n1cncn1` [NAP851] (X1-[Gly(N-(CH2)3-guanidino)]GG[Ahx]K(Biotin)-OH; N-terminus assumed): the Ki at human trypsin [1] (setting [8]) amounted to 7560 nM. On human trypsin [1] (setting [9]), the k3 is reported as 0.160 (±0.020) min^−1 and the k3/Ki was 2.46 (±0.858) x 10^4 M^−1 min^−1. The “substrate turnover at prolonged incubation” value at human trypsin [1] (progress curves, 60 min incubation) is on record as “slight increase in fluorescence, due to residual substrate turnover”. Also, the Ki on human trypsin [1] (read-out: Ki) was about 7600 nM. In addition, at human trypsin [1] (trypsin), the “k3/Ki fold smaller than NAP858” value is on record as about 8 fold, the “k3/Ki fold smaller than NAP897/NAP884” value is about 4 fold and the “k3/Ki fold smaller than NAP966” value was about 6 fold.

By inhibition is commonly meant the percentage by which the read-out fell short of the control. Regarding `C#Cc1cccc(NC(=O)CCCC(=O)NCCCC[C@H](NC(=O)CCCCCNC(=O)CNC(=O)CNC(=O)CN(CCCNC(=N)N)C(=O)ON2C(=O)CCC2=O)C(=O)O)c1` [NAP884] (X2-[Gly(N-(CH2)3-guanidino)]GG[Ahx]K([Glutaryl-X3])-OH), the Ki at human trypsin [1] (setting [8]) is 420 nM. For the same molecule, the k3 on human trypsin [1] (setting [9]) is given as 0.528 (±0.064) min^−1. Further, the k3/Ki at human trypsin [1] (setting [9]) is reported as 1.34 (±0.351) x 10^6 M^−1 min^−1. Also, the “inhibitory behaviour against chymotrypsin” value in the experiment on chymotrypsin (in words) is recorded as “similarly discriminating inhibitory behaviour against trypsin compared to chymotrypsin”. Moreover, the inhibition at 50 µM at neutrophil elastase [2] was about 50%. For the same molecule, the “selectivity of action for trypsin” value in the experiment with trypsin [3] is reported as “pronounced selectivity of action in inhibiting trypsin”. In addition, the detection of trypsin entry in the experiment on trypsin [4] (probe 1 μM) was “not detectable”; in the experiment with trypsin [4] (probe 10 μM), “enabled the detection of trypsin”; with trypsin [4] (probe 50 μM), “enabled the detection of trypsin”. The “labelling of NE” value on neutrophil elastase [5] is “complete absence of labelling of NE”.

For the molecule `N=C(N)NCCCN(CC(=O)NCC(=O)NCC(=O)NCCCCCC(=O)N[C@@H](CCCCNC(=O)CCCC[C@@H]1SC[C@@H]2NC(=O)N[C@@H]21)C(=O)O)C(=O)ON1C(=O)CCC1=O` [NAP897] (X2-[Gly(N-(CH2)3-guanidino)]GG[Ahx]K(Biotin)-OH), on human trypsin [1] (setting [8]), the Ki was 663 nM. Further, on human trypsin [1] (setting [9]), the k3 is given as 0.741 (±0.225) min^−1 and the k3/Ki is on record as 1.35 (±0.376) x 10^6 M^−1 min^−1. For the same molecule, in the experiment with chymotrypsin (50 μM (highest concentration tested)), the “inhibition of chymotrypsin relative to controls” value is under 10%. In addition, the inhibition at 50 µM on neutrophil elastase [2] was under 10%. The “selectivity of action for trypsin” value in the experiment on trypsin [3] is “pronounced selectivity of action in inhibiting trypsin”. Further, in the experiment on trypsin [6], the labelling of trypsin result is “labelling of a single protein band corresponding to the correct molecular mass of trypsin”.

For the molecule `N=C(N)NCCC[C@H](NC(=O)CCC(=O)NCCCOCCOCCOCCCNC(=O)CCCC[C@@H]1SC[C@@H]2NC(=O)N[C@@H]21)P(=O)(Oc1ccccc1)Oc1ccccc1` [QUB-TL1], on human trypsin [7], the Ki was 174 nM, the k3 is 0.284 min⁻¹ and the k3/Ki was 27300 M⁻¹ s⁻¹. Further, the inhibition of matriptase entry on matriptase is recorded as “potent inhibitor”. In addition, in the experiment on HAT, the “inhibition of HAT” value is “potent inhibitor”.

With `N=C(N)NCCCN(CC(=O)NCC(=O)NCC(=O)NCCCCCC(=O)N[C@@H](CCCCNC(=O)CCCC[C@@H]1SC[C@@H]2NC(=O)N[C@@H]21)C(=O)O)C(=O)Oc1c(F)c(F)c(F)c(F)c1F` [NAP966] (X4-[Gly(N-(CH2)3-guanidino)]GG[Ahx]K(Biotin)-OH), the Ki was about 2100 nM at human trypsin [1] (Ki) and 2120 nM at human trypsin [1] (Ki, PBS pH 7.4, 37°C, 50 μM Cbz-Gly-Gly-Arg-AMC, ±S.E.M., three determinations). In addition, at human trypsin [1] (setting [9]), the k3 is on record as 0.401 (±0.007) min^−1. Besides, the k3/Ki on human trypsin [1] (setting [9]) is 1.92 (±0.250) x 10^5 M^−1 min^−1.
